# Source: US6482815B1 (priority 1999, dated 2002)
# Read-outs that look alike come from different tables or passages of the source.
# Columns and labels:
# NALM-6 [1] = experiment: cells; type: cell-based; details: Homo sapiens, NALM-6, read-out: NALM-6 IC50
# MOLT-3 [2] = experiment: cells; type: cell-based; details: Homo sapiens, MOLT-3, read-out: MOLT-3 IC50
# ALL1 = experiment: cells; type: cell-based; details: Homo sapiens, read-out: ALL1 IC50
# RS4;11 = experiment: cells; type: cell-based; details: Homo sapiens, RS4-11, read-out: RS4;11 IC50
# NALM-6 [3] = experiment: Anti-proliferative activity (colony counts), NALM-6; type: cell-based, human
# Excerpt: (§1) The dose-responsive anti-proliferative activity of various organic arsenic acid substituted compounds against leukemic cell lines (NALM-6 and MOLT-3) is shown below in Table 3. FIGS. 3A-3F show dose response curves in ALL1, NALM-6, and MOLT-3 cells.
# MOLT-3 [4] = experiment: Anti-proliferative activity (colony counts), MOLT-3; type: cell-based, human
# Excerpt: as §1
# NALM-6 [5] = experiment: In situ detection of apoptosis (nick-end-labeling, ApopTag), NALM-6; type: cell-based, human; details: NALM-6, WHI-P381 2 μg/ml, 36 hour incubation (FIG. 1B)
# Method: (§2) Assay for apoptosis was performed by the in situ nick-end-labeling method using an ApopTag in situ detection kit (Oncor, Gaithersburg, Md.) according to the manufacturer's recommendations. Exponentially growing cells (NALM-6 and MOLT-3) were seeded in 6-well tissue culture plates at a density of 50×10^4 cells/well and cultured for 36 hours at 37° C. in a humidified 5% CO2 atmosphere. The supernatant culture medium was carefully aspirated and replaced with fresh medium alone or fresh medium containing WHI-P381 at a concentration of 2 μg/ml.
# (§3) After a 36 hour incubation at 37° C. in a humidified 5% CO2 incubator, the supernatants were carefully aspirated and the cells were treated for 1-2 minutes with 0.1% trypsin. The detached cells were collected into a 15 ml centrifuge tube, washed with medium and pelleted by centrifugation at 1000 rpm for 5 minutes. Cells were resuspended in 50 μl of PBS, transferred to poly-L-lysine coated coverslips and allowed to attach for 15 minutes. The cells were washed once with PBS and incubated with equilibration buffer for 10 minutes at room temperature.
# (§4) After removal of the equilibration buffer, cells were incubated for 1 hour at 37° C. with the reaction mixture containing terminal deoxynucleotidyl transferase (TdT) and digoxigenin-11-UTP for labeling of exposed 3′-hydroxyl ends of fragmented nuclear DNA. […]
# MOLT-3 [6] = experiment: In situ detection of apoptosis (nick-end-labeling, ApopTag), MOLT-3; type: cell-based, human; details: MOLT-3, WHI-P381 2 μg/ml, 36 hour incubation (FIG. 1D)
# Method: as §2, §3, §4
# BT20 [7] = tested on: BT20
# BT20 [8] = experiment: cells; details: Homo sapiens, BT-20, read-out: BT20 IC50
# [9] = tested on: leukemic cell lines (NALM-6, MOLT-3, ALL1, RS4;11); experiment: cells; details: Homo sapiens, read-out: IC50 values in leukemic cell lines
# primary leukemic cells = experiment: MTT cytotoxicity against primary leukemic cells; details: cells from 5 leukemia patients, FIGS. 4A-4E
# NALM-6 cells = experiment: MTT cytotoxicity over 1-4 days versus arsenic trioxide, NALM-6; details: for IC50: Homo sapiens
# [10] = NALM-6, concentration 0.1 (mM as printed)
# [11] = NALM-6, concentration 1 (mM as printed)
# [12] = NALM-6, concentration 10 (mM as printed)
# [13] = NALM-6, concentration 100 (mM as printed)
# [14] = MOLT-3, concentration 0.1 (mM as printed)
# [15] = MOLT-3, concentration 1 (mM as printed)
# [16] = MOLT-3, concentration 10 (mM as printed)
# [17] = MOLT-3, concentration 100 (mM as printed)
structure (smiles),measurement,setting,value
"CSc1nccc(Nc2ccccc2[As](=O)(O)O)n1 [WHI-P381, 2-Methylthio4-(2′-phenylarsenic acid)-aminopyrimidine]",IC50,NALM-6 [1],< 1.9 µM
same,IC50,MOLT-3 [2],< 1.9 µM
same,IC50,ALL1,< 1.9 µM
same,IC50,RS4;11,< 1.9 µM
same,% Inhibition,NALM-6 [3]; [10],100%
same,Mean No. of Colonies/10^6 Cells,NALM-6 [3]; [10],0 Colonies/10^6 Cells
same,% Inhibition,NALM-6 [3]; [11],100%
same,Mean No. of Colonies/10^6 Cells,NALM-6 [3]; [11],0 Colonies/10^6 Cells
same,% Inhibition,NALM-6 [3]; [12],100%
same,Mean No. of Colonies/10^6 Cells,NALM-6 [3]; [12],0 Colonies/10^6 Cells
same,% Inhibition,NALM-6 [3]; [13],100%
same,Mean No. of Colonies/10^6 Cells,NALM-6 [3]; [13],0 Colonies/10^6 Cells
same,% Inhibition,MOLT-3 [4]; [14],70.2%
same,Mean No. of Colonies/10^6 Cells,MOLT-3 [4]; [14],"429(202, 656) Colonies/10^6 Cells"
same,% Inhibition,MOLT-3 [4]; [15],100%
same,Mean No. of Colonies/10^6 Cells,MOLT-3 [4]; [15],0 Colonies/10^6 Cells
same,% Inhibition,MOLT-3 [4]; [16],100%
same,Mean No. of Colonies/10^6 Cells,MOLT-3 [4]; [16],0 Colonies/10^6 Cells
same,% Inhibition,MOLT-3 [4]; [17],100%
same,Mean No. of Colonies/10^6 Cells,MOLT-3 [4]; [17],0 Colonies/10^6 Cells
same,apoptosis: fluorescence versus untreated cells,NALM-6 [5],much greater Fluorescence
same,apoptosis: fluorescence versus untreated cells,MOLT-3 [6],much greater Fluorescence
same,melting point,,225 to 228 °C
same,cytotoxic against the breast cancer cell line BT20 (in words),BT20 [7],cytotoxic
same,IC50,BT20 [8],17.3 µM
same,IC50,[9],≤ 1.9 µM
same,cytotoxic activity against primary leukemic cells (in words),primary leukemic cells,susceptible to the cytotoxic effects
same,IC50,"NALM-6 cells; NALM-6, 24 h, read-out: Cytotoxicity against NALM-6 cells IC50, Day 1",2.03 µM
same,IC50,"NALM-6 cells; NALM-6, 48 h, read-out: Cytotoxicity against NALM-6 cells IC50, Day 2",0.85 µM
same,IC50,"NALM-6 cells; NALM-6, 72 h, read-out: Cytotoxicity against NALM-6 cells IC50, Day 3",0.7 µM
same,IC50,"NALM-6 cells; NALM-6, 96 h, read-out: Cytotoxicity against NALM-6 cells IC50, Day 4",0.68 µM
same,cytotoxicity compared with arsenic trioxide (in words),"NALM-6 cells; NALM-6, 0.07 μM to 5 μM, 1-4 days, FIGS. 2A-2D",more cytotoxic than arsenic trioxide
